# In paper PMC8286840, “Identifying SARS-CoV-2 antiviral compounds by screening for small molecule inhibitors of Nsp3 papain-like protease” (Biochemical Journal, 2021):
# Counter-ions that a name gives are not always drawn. Like-named read-outs stand apart in the source and are kept apart here.
# Legend:
# [1] = target: T1, SARS-CoV-2 PLpro (nsp3 1564–1878) (Severe acute respiratory syndrome coronavirus 2, UniProt P0DTD1); test: biochemical; parameters: FRET-quenched peptide (Pro3) cleavage by PLpro, 10 min pre-incubation, slope over 20 min, normalised to no-compound control; conditions: read-out: % of control remaining
# [2] = target: T1, SARS-CoV-2 PLpro (nsp3 1564–1878); test: biochemical; parameters: FRET-quenched peptide (Pro3) cleavage by PLpro, 10 min pre-incubation, slope over 20 min, normalised to no-compound control; conditions: read-out: % of control remaining; remark: listed apart in the source
structure (smiles),measurement,setting,value
CCOC(=O)c1cnc(C#Cc2ccc3c(c2)C(C)(C)CC[S+]3[O-])nc1 (stereo not shown) [WYC-209],remaining activity at 1.25 µM,"[1]; Well no.=7204, low concentration screen",92.4%
same,remaining activity at 3.75 µM,"[2]; Well no.=7204, high concentration screen",90.8%
CC(C)NP(=O)(NC(C)C)OP(=O)(NC(C)C)NC(C)C [Tetraisopropyl pyrophosphoramide],remaining activity at 1.25 µM,"[1]; Well no.=1473, low concentration screen",103%
same,remaining activity at 3.75 µM,"[2]; Well no.=1473, high concentration screen",100%
CCc1cc(-c2noc(-c3cc(OC)nc(C4CCCC4)c3)n2)cc(C)c1OC[C@@H](O)CO [Cenerimod],remaining activity at 1.25 µM,"[1]; Well no.=7052, low concentration screen",105%
same,remaining activity at 3.75 µM,"[2]; Well no.=7052, high concentration screen",105%
CN1CCC(=C2c3ccccc3CCc3cccnc32)CC1 [Azatadine dimaleate],remaining activity at 1.25 µM,"[1]; Well no.=5036, low concentration screen",99%
same,remaining activity at 3.75 µM,"[2]; Well no.=5036, high concentration screen",102%
COCC(=O)NC/C=C/c1ccc2ncnc(Nc3ccc(Oc4ccc(C)nc4)c(C)c3)c2c1 [CP-724714],remaining activity at 1.25 µM,"[1]; Well no.=2837, low concentration screen",103%
same,remaining activity at 3.75 µM,"[2]; Well no.=2837, high concentration screen",103%
Cc1cc(C)c(Nc2ccnc(Nc3ccc(C#N)cc3)n2)c(C)c1 [Dapivirine],remaining activity at 1.25 µM,"[1]; Well no.=5223, low concentration screen",97.4%
same,remaining activity at 3.75 µM,"[2]; Well no.=5223, high concentration screen",98.3%
CC1=C(/C=C/C(C)=C/C=C/C(C)=C\C(=O)O)C(C)(C)CCC1 [Isotretinoin],remaining activity at 1.25 µM,"[1]; Well no.=6303, low concentration screen",108%
same,remaining activity at 3.75 µM,"[2]; Well no.=6303, high concentration screen",108%
C=C1CC[C@@H]2[C@](C)(CO)[C@H](O)CC[C@@]2(C)[C@@H]1C/C=C1/C(=O)OC[C@H]1O [Andrographolide],remaining activity at 1.25 µM,"[1]; Well no.=3435, low concentration screen",93.4%
same,remaining activity at 3.75 µM,"[2]; Well no.=3435, high concentration screen",96.9%
O=C1NC(=O)/C(=C/c2ccc3nccc(-c4ccncc4)c3c2)S1 [GSK1059615],remaining activity at 1.25 µM,"[1]; Well no.=5191, low concentration screen",104%
same,remaining activity at 3.75 µM,"[2]; Well no.=5191, high concentration screen",99.2%
O=C1CCC(c2ccccc2)(C2CCN(Cc3ccccc3)CC2)C(=O)N1 (stereo not shown) [Benzetimide (hydrochloride)],remaining activity at 1.25 µM,[1],99.9%
same,remaining activity at 3.75 µM,[2],97.6%
CCOC(=O)CC(=O)N1CCSC1COc1ccccc1OC (stereo not shown) [Moguisteine],remaining activity at 1.25 µM,"[1]; Well no.=4931, low concentration screen",98.7%
same,remaining activity at 3.75 µM,"[2]; Well no.=4931, high concentration screen",95.6%
O=C(/C=C/c1ccc(O)c(O)c1)c1ccc(O)cc1O [Butein],remaining activity at 1.25 µM,"[1]; Well no.=3272, low concentration screen",96.3%
same,remaining activity at 3.75 µM,"[2]; Well no.=3272, high concentration screen",97.5%
Nc1ccn([C@@H]2CS[C@H](CO)O2)c(=O)n1 [Lamivudine],remaining activity at 1.25 µM,"[1]; Well no.=8142, low concentration screen",100%
same,remaining activity at 3.75 µM,"[2]; Well no.=8142, high concentration screen",98.2%
CC1=CC(=O)c2c(O)cccc2C1=O [Plumbagin],remaining activity at 1.25 µM,"[1]; Well no.=3351, low concentration screen",85.5%
same,remaining activity at 3.75 µM,"[2]; Well no.=3351, high concentration screen",79.6%
COc1cc2ncnc(Sc3nnc(C)s3)c2cc1OC [SKLB1002],remaining activity at 1.25 µM,"[1]; Well no.=5943, low concentration screen",102%
same,remaining activity at 3.75 µM,"[2]; Well no.=5943, high concentration screen",102%
C[C@]12CC[C@H](O)C[C@@H]1CC[C@@H]1[C@@H]2CC[C@]2(C)C(=O)CC[C@@H]12 [Epiandrosterone],remaining activity at 1.25 µM,"[1]; Well no.=6441, low concentration screen",103%
same,remaining activity at 3.75 µM,"[2]; Well no.=6441, high concentration screen",103%
COc1ccccc1N1CCN(CC(O)COc2cccc3ccccc23)CC1 (stereo not shown) [Naftopidil dihydrochloride],remaining activity at 1.25 µM,"[1]; Well no.=1084, low concentration screen",96.1%
same,remaining activity at 3.75 µM,"[2]; Well no.=1084, high concentration screen",95.6%
NCC(O)C1CCCCCCC1 (stereo not shown) [2-Cyclooctyl-2-hydroxyethylamine hydrochloride],remaining activity at 1.25 µM,"[1]; Well no.=485, low concentration screen",106%
same,remaining activity at 3.75 µM,"[2]; Well no.=485, high concentration screen",105%
CCCCCCCCCCCCCCCCCCOCC(COP(=O)([O-])OCC[N+](C)(C)C)OC (stereo not shown) [Edelfosine],remaining activity at 1.25 µM,"[1]; Well no.=5699, low concentration screen",95.5%
same,remaining activity at 3.75 µM,"[2]; Well no.=5699, high concentration screen",96.4%
CC1=C(/C=C/C(C)=C/C=C/C(C)=C/C(=O)Nc2ccc(O)cc2)C(C)(C)CCC1 [4-Hydroxyphenylretinamide],remaining activity at 1.25 µM,"[1]; Well no.=4432, low concentration screen",99%
same,remaining activity at 3.75 µM,"[2]; Well no.=4432, high concentration screen",97.3%
NCCc1c[nH]cn1 [Histamine dihydrochloride],remaining activity at 1.25 µM,"[1]; Well no.=564, low concentration screen",103%
same,remaining activity at 3.75 µM,"[2]; Well no.=564, high concentration screen",101%
COC(=O)c1ccc(O)c2nc3c(C=O)c(O)cc(O)c3nc12 [Lomofungin],remaining activity at 1.25 µM,"[1]; Well no.=1551, low concentration screen",102%
same,remaining activity at 3.75 µM,"[2]; Well no.=1551, high concentration screen",102%
CCOc1nc(NC(=O)Cc2cc(OC)ccc2OC)cc(N)c1C#N [JNK Inhibitor VIII],remaining activity at 1.25 µM,"[1]; Well no.=2550, low concentration screen",99.5%
same,remaining activity at 3.75 µM,"[2]; Well no.=2550, high concentration screen",100%
CNc1cc2c(Nc3cccc(Br)c3)ncnc2cn1 [PD 158780],remaining activity at 1.25 µM,"[1]; Well no.=2499, low concentration screen",99.1%
same,remaining activity at 3.75 µM,"[2]; Well no.=2499, high concentration screen",99.3%
O=C(O)c1cc(=O)c2ccccc2[nH]1 [Kynurenic acid],remaining activity at 1.25 µM,"[1]; Well no.=1117, low concentration screen",97.8%
same,remaining activity at 1.25 µM,"[1]; Well no.=7403, low concentration screen",99.6%
same,remaining activity at 3.75 µM,"[2]; Well no.=1117, high concentration screen",99.5%
same,remaining activity at 3.75 µM,"[2]; Well no.=7403, high concentration screen",99.4%
CCN(CC)CCNC(=O)c1cc(S(C)(=O)=O)ccc1OC [Tiapride hydrochloride],remaining activity at 1.25 µM,"[1]; Well no.=1185, low concentration screen",101%
same,remaining activity at 3.75 µM,"[2]; Well no.=1185, high concentration screen",100%
CN1CCN(C(=O)c2cc3cc(Cl)ccc3[nH]2)CC1 [JNJ-7777120],remaining activity at 1.25 µM,"[1]; Well no.=5217, low concentration screen",101%
same,remaining activity at 1.25 µM,"[1]; Well no.=6949, low concentration screen",103%
same,remaining activity at 3.75 µM,"[2]; Well no.=5217, high concentration screen",104%
same,remaining activity at 3.75 µM,"[2]; Well no.=6949, high concentration screen",96%
NC(N)=NCc1cccc(I)c1 [m-Iodobenzylguanidine hemisulfate],remaining activity at 1.25 µM,"[1]; Well no.=777, low concentration screen",105%
same,remaining activity at 3.75 µM,"[2]; Well no.=777, high concentration screen",108%
CCN1C[C@]2(COC)CC[C@H](O)[C@]34C1C(C[C@H]23)[C@@]1(O)C[C@H](OC)[C@H]2C[C@@H]4[C@@H]1[C@H]2OC(C)=O [Condelphine],remaining activity at 1.25 µM,"[1]; Well no.=3107, low concentration screen",93.3%
same,remaining activity at 3.75 µM,"[2]; Well no.=3107, high concentration screen",92.8%
O=C1CC2(CCCC2)CC(=O)N1CCCCN1CCN(c2ncccn2)CC1 [Buspirone (hydrochloride)],remaining activity at 1.25 µM,"[1]; Well no.=8249, low concentration screen",101%
same,remaining activity at 3.75 µM,"[2]; Well no.=8249, high concentration screen",99.1%
CC(C[N+](C)(C)C)OC(N)=O (stereo not drawn) [Carbamyl-beta-methylcholine],remaining activity at 1.25 µM,"[1]; Well no.=1736, low concentration screen",95.2%
same,remaining activity at 3.75 µM,"[2]; Well no.=1736, high concentration screen",94.9%
CN1[C@@H](CC(=O)c2ccccc2)CCC[C@H]1C[C@H](O)c1ccccc1 [alpha-Lobeline hydrochloride],remaining activity at 1.25 µM,"[1]; Well no.=1025, low concentration screen",98.8%
same,remaining activity at 3.75 µM,"[2]; Well no.=1025, high concentration screen",102%
O=c1cc[nH]c(=S)[nH]1 [2-Thiouracil],remaining activity at 1.25 µM,"[1]; Well no.=5325, low concentration screen",90.5%
same,remaining activity at 3.75 µM,"[2]; Well no.=5325, high concentration screen",90.8%
C/C(=C\C(=O)Nc1ccccc1C(=O)O)c1ccc2ccccc2c1 [BIBR 1532],remaining activity at 1.25 µM,"[1]; Well no.=5095, low concentration screen",103%
same,remaining activity at 3.75 µM,"[2]; Well no.=5095, high concentration screen",106%
CCCCOc1nc(N)c2c(n1)N(Cc1cccc(CN3CCCC3)c1)CC(=O)N2 [Vesatolimod],remaining activity at 1.25 µM,"[1]; Well no.=8127, low concentration screen",105%
same,remaining activity at 3.75 µM,"[2]; Well no.=8127, high concentration screen",102%
CC(C(=O)O)c1ccc2c(c1)Cc1cccnc1O2 (stereo not shown) [Pranoprofen],remaining activity at 1.25 µM,"[1]; Well no.=2139, low concentration screen",98.7%
same,remaining activity at 3.75 µM,"[2]; Well no.=2139, high concentration screen",99.8%
